Broadly, the melting point is the temperature, or range, at which the solid turns liquid.

Each structure is given as a SMILES string.

The molecule `Nc1cnc(Cl)c(Cl)c1` displayed a melting point of 110 to 113 °C. `COC(=O)C1(CC#N)C(=O)N(Cc2ccc(Br)cc2F)C(=O)c2ccccc21` (stereo unspecified) gave a melting point of 108 to 110 °C.

`CCc1cccc(NC(=O)C=C(C)C)c1` returned a melting point of 90 °C. On to `CCn1c(C)c(C2(N(c3ccccc3)c3ccc(NC(C)=O)cc3)OC(=O)c3ccccc32)c2ccccc21` (stereo unspecified), for which the melting point lay within 93 to 116 °C.

Take `CC(=O)c1cccc(NC(=O)NCCN(CCNC(=O)Nc2cccc(C(C)=O)c2)CCNC(=O)Nc2cccc(C(C)=O)c2)c1`: the melting point worked out at 193 °C. As to `Oc1ccc(C2Oc3ccccc3C=C2c2ccc(OC3CCCCO3)cc2)cc1` (stereo unspecified), the melting point worked out at 110 °C. As for `COc1ccc(C(=O)Nc2ccccc2)cc1NS(=O)(=O)c1cccc(Cl)c1`, the melting point lay within 197 to 199 °C. The molecule `CN(Cc1ccccc1)CC1CNC(=O)c2cccc3[nH]cc1c23` (stereo unspecified) showed a melting point of 191 to 193 °C. `O=C1Nc2cccc(I)c2C(=O)N2CC[C@@H]12` showed a melting point of 186 to 187 °C.

`COc1ccc(-c2c3c(c(C)c4ccc(OC)cc24)C(=O)NC3)cc1` registered a melting point of 235 to 237 °C.

Turning to `CC(C)c1cccc(C(C)C)c1NC(=O)CN1CCN(CCCSc2nc3ccccc3s2)CC1`, the melting point fell in the range of 113 to 115 °C. On to `CCCCCCCCCCCCCCCCCCN(C)CC(O)CO` (stereo unspecified), for which the melting point is 59 °C. To `CCOC(=O)c1ccc(-c2ccc(-c3ccc(Cl)cc3)s2)cc1` belongs 167 to 168 °C; to `COc1ccccc1S(=O)(=O)C(C)(Cc1ccc2ncccc2c1)C(=O)NO` (stereo unspecified), 206 °C. To `COc1ccc2ccccc2c1C(=O)/C=C/c1ncn(C(c2ccccc2)(c2ccccc2)c2ccccc2)c1C` belongs 220 to 222 °C.

The molecule `CC(C)(C)c1cc(CC(C)(C)C2SCCS2)cc(C(C)(C)C)c1O` displayed a melting point of 119 °C. Molecule `CSc1ccc(-c2cc(=O)nc(N)o2)cc1` returned a melting point of 266 to 267 °C. Molecule `CC(=O)c1ccc(Oc2cccnc2)cc1` had a melting point of 45 to 50 °C. The same measure for `CCCCCC(CO)n1cnc(NC(=O)c2ccccc2C(=O)O)c1` (stereo unspecified): 99 to 101 °C; for `OCc1cc2ccccc2[nH]1`: 73.5 to 74.4 °C.

With `CC(C)(NC(=O)CCc1nccn1Cc1ccccc1)c1ccc(Cl)cc1`, the melting point lay within 128 to 129 °C. Regarding `CC1(C)CC(=O)c2c(SCc3ccccc3)c[nH]c2C1`, the melting point lay within 220 to 223 °C.

For the molecule `N#Cc1ccc(N2CCC(F)(F)C2)c2ccccc12`, the melting point lay in the range of 68 to 69 °C. `Cc1cccc(-c2[nH]c(C(C)C)nc2-c2cccc(-c3ccc(F)cc3F)c2)n1` showed a melting point of 70 to 72 °C.

Consider `COc1ccc2[nH]c(S(=O)Cc3cc(N(C)C)ncn3)nc2c1` (stereo unspecified), for which the melting point fell in the range of 104 to 106 °C. `Cn1c2ccccc2c2c3ccc(Cl)cc3c(=O)[nH]c21`: the melting point was more than 310 °C. Molecule `CC(C)C[C@@H](NS(=O)(=O)c1ccc(N2CCC(c3ccccc3)CC2)cc1)C(=O)O` displayed a melting point of 163 to 165 °C. As to `c1cnc2ccc(Nc3nccc(-c4ccc(N5CCNCC5)nc4)n3)cc2c1`, the melting point was 199 to 200 °C.

Molecule `Cc1cccc(-c2cn(C)cc(-c3ccccc3)c2=O)c1` gave a melting point of 79.5 °C.

As to `Nc1nnc(-c2ccccc2Nc2cccc(C(F)(F)F)c2)s1`, the melting point was in the range of 122 to 123 °C. The same measure for `O=Cc1cccn2c(Br)cnc12`: 104 to 106 °C. Consider `CSc1nnc(-c2ccc3occ(-c4cc(F)ccc4F)c3c2)o1`, for which the melting point fell in the range of 158 to 159 °C.

`CC(C)(C)c1cc(CCc2ccccc2NC(=O)NCC(C)(C)c2ccc(N3CCCC3)cc2)cc(C(C)(C)C)c1O` had a melting point of 195 to 196 °C.

In turn, `CC(C)c1nc(CC(=O)O)c(-c2ccco2)o1` came in with a melting point of 108 to 109 °C.

Turning to `COc1ccc2c(c1)Sc1cc(OC)ccc1N2CCC#N`, the melting point was in the range of 111 to 113 °C. The same measure for `CC(C)CC(=O)Nc1cccc(-c2ccnc3c(C(=O)c4ccoc4)cnn23)c1`: 144 to 146 °C; for `CCOC(=O)c1cnn(-c2ccccn2)c1C#N`: 112 to 114 °C; for `Oc1ccc(O)c(-c2nc3cc(O)ccc3o2)c1`: 309 to 311 °C.

The molecule `O=c1oc2ccc(-c3ccc(F)cc3F)cc2c(=O)n1-c1cc(F)ccc1F` gave a melting point of 144 to 145 °C. The same measure for `CCCS(=O)(=O)Nc1ccc(Sc2c(O)c3c(=O)n(-c4ccccc4)c4ccccc4c3oc2=O)cc1`: 249 to 251 °C; for `Cc1c(NC(=O)c2ccc(-c3ccc(C(F)(F)F)cc3)cc2F)ccc2cc(CN3CCCC3)cnc12`: 202 to 203 °C. To `COc1cc(CC(=O)O)ccc1CNC(=O)C1Cc2ccccc2N1S(=O)(=O)c1ccc(-c2cccc(C(F)(F)F)c2)cc1` (stereo unspecified) belongs 99 to 105 °C. `CCCCCCOc1ccc2cc(C(C)C(=O)O)ccc2c1` (stereo unspecified) returned a melting point of 88 to 91 °C. Turning to `Cc1ccc(-c2nc(C)c(-c3ccnc(Nc4ccc(N5CCOCC5)cc4)n3)s2)c(C)c1`, the melting point is 191 to 192 °C. To `CC(=O)Oc1c(Cl)c(C)nc(C)c1-c1ccc(Oc2ccc(OC(F)(F)F)cc2)cc1` belongs 78 to 80 °C; to `COc1ccnc(C(=O)c2[nH]c3cc(Cl)ccc3c2NC(=O)CC(C)C)c1`, 162 to 163 °C; to `CN1CNC(=S)N(c2ccc([N+](=O)[O-])cc2)C1`, 170 to 172 °C. As to `C[C@]12C[C@H](c3ccc(OCCCCCS(=O)(=O)CCCc4c(F)c(F)c(F)c(F)c4F)cc3)[C@@H]3c4ccc(O)cc4CC[C@H]3[C@@H]1CC[C@@H]2O`, the melting point was 130 °C.

For `O=C1OC2(CC(c3cccc(Oc4ccccc4)c3)=NO2)c2ccccc21` (stereo unspecified), the melting point lay within 114 to 116 °C. As for `Nc1cccc(-c2cc(NC(=O)c3cccs3)nc(-c3ccccc3O)c2)c1`, the melting point lay within 161 to 162 °C.

`CC1(c2ccc(N)cc2F)CNC1=O` (stereo unspecified) yielded a melting point of 125 to 127 °C.

Consider `O=C(c1ccccc1)N1CC(O)C(O)C(O)C1CO` (stereo unspecified), for which the melting point was 159 °C. With `CCc1nc(OC)c(NC(=O)N2CCN(c3cc(F)cc(F)c3)CC2)cc1C(=O)Nc1cc(CO)cc(Nc2c3ccccc3nc3ccccc23)c1`, the melting point was in the range of 184 to 186 °C. For `CC(=O)NCc1ccc(CN2CCN(c3ccc(Cl)cc3)CC2)cc1`, the melting point fell in the range of 180 to 182 °C.

`c1ccc(-c2cccc3c2CCN(Cc2c[nH]c4ncccc24)C3)cc1` had a melting point of 202 to 204 °C. To `CCC(C#N)=C1CCN(c2ccc(N3C[C@H](CNC(=O)C(Cl)(Cl)Cl)OC3=O)cc2F)CC1` belongs 150 to 152 °C; to `CN(C)C=C1C(=O)N(c2cccc(C(F)(F)F)c2)c2ccccc21`, 103 to 106 °C; to `O=C(c1ccc(F)cc1F)C1CCN(CC2=Cc3ccccc32)CC1`, 70 °C. To `O=[N+]([O-])C(=Cc1ccoc1)C1=NCCN1Cc1ccc(Cl)nc1` belongs 175 to 176 °C; to `CN1C(=O)C(C(=O)Nc2ccc(Cl)c(Cl)c2)Sc2ccccc21` (stereo unspecified), 191 to 193 °C. With `COc1c(C)c2c(c(O)c1C/C=C(\C)C(CC(=O)O)OC)C(=O)OC2` (stereo unspecified), the melting point fell in the range of 133 to 135 °C.

The molecule `CC(C)(Oc1ccc(C(=O)c2ccccc2)cc1)C(=O)O` registered a melting point of 130 °C.

On to `CCCCSc1ccc(C2CC(=O)C(C(=O)CC)=C(O)C2)cc1[N+](=O)[O-]` (stereo unspecified), for which the melting point was found to be 102 °C. As for `Cc1cc(=O)c(C(=O)Nc2ccccc2Cl)c(C)o1`, the melting point lay in the range of 206 to 207 °C. The same measure for `Cc1ccc(S(=O)(=O)N[C@@H](C)C(=O)N[C@@H](Cc2ccccc2)C(=O)O)cc1`: 105 to 108 °C; for `CC(C)C(=O)NC1CCc2c(c3cc(C(N)=O)ccc3n2Cc2cccc(F)c2)C1` (stereo unspecified): 192 to 194 °C. The same measure for `CCOC(=O)C1=C(NC(=O)Nc2cc(C(=O)OC(C)C)c(Cl)cc2Cl)CCC1`: 140 to 142 °C; for `C[Si](C)(c1ccccc1)C1CC(=O)c2c(nc3ccccc3c2N)C1` (stereo unspecified): 178 to 180 °C. Molecule `CCOC(=O)N1CCN(c2ccc(C(=O)CCc3ccc(NC4=NCCN4)cc3)cc2)CC1` came in with a melting point of 150 to 151 °C.

`O=C(NCCCCCCOC(=O)Oc1ccc([N+](=O)[O-])cc1)Oc1ccc(Oc2ccccc2)cc1`: the melting point was 102 to 104 °C. Take `N#Cc1c(Cc2ccccc2)nn(C2CCCC2)c1NC(=O)c1ccncc1`: the melting point is 189 to 191 °C. As for `OC(c1ccc(Cl)cc1)(c1ccc(Cl)cc1)C1CO1` (stereo unspecified), the melting point fell in the range of 87 to 88 °C. To `COc1ccc2c(c1)c(C1=C(c3cn(C)c4ccc(OC)cc34)C(=O)N(C)C1=O)cn2C` belongs 114 to 117 °C; to `COc1cccc2c1CCN(C(=O)C(F)(F)F)CC2`, 74 to 76 °C. To `CC(C)(C)N1C(=O)c2cnc(-c3ccccc3)nc2N(C(=O)CN2CCCCC2)c2ccccc21` belongs 193 to 194 °C; to `CCOC(=O)c1csc(-c2cc3cccc(NS(=O)(=O)c4cccs4)c3[nH]2)n1`, 240 to 241 °C.

Molecule `CCOC(=O)CSC1=CC(=NS(=O)(=O)c2cccs2)c2ccccc2C1=O` gave a melting point of 110 to 112 °C. As for `COc1ccc2sc(C(=O)O)c(OCc3ccccc3)c2c1`, the melting point was 150 °C. With `COC(=O)c1cc2c(n(Cc3ccc(C#N)cc3)c1=O)CCCCCC2`, the melting point was 72 to 75 °C. The molecule `O=C1CN(N=Cc2ncc(-c3ccc(Cl)cc3)o2)C(=O)N1` showed a melting point of 290 to 294 °C. As for `CCOc1ccc(C2=NN(CCCCOc3ccc(C4=NNC(=O)CC4C)cc3)C(=O)C3CC=CCC23)cc1OCC` (stereo unspecified), the melting point was in the range of 73 to 78 °C. On to `COc1ccc(-c2cc(=O)[nH]cn2)cc1OC`, for which the melting point lay within 248 to 249 °C. The same measure for `CCCC(=O)c1cnc2ccccc2c1Nc1ccccc1C`: 107 to 109 °C; for `Cc1cc(-c2ccc(NS(C)(=O)=O)cc2)cc2ccc(=O)[nH]c12`: 340 to 343 °C; for `O=C1Cc2cc(Br)cnc2N1`: 250 °C. In the case of `O=C1NC(=O)C2(C(=O)N(Cc3ccc(Cl)c(Cl)c3)c3ccccc32)N1C(=O)OCc1ccccc1` (stereo unspecified), the melting point fell in the range of 215 to 217 °C.

Values taken from a melting point compilation (Tetko et al.; mined from patent text by program, amines drawn as free bases though some values may be those of a salt).
